Measurements as given in patent publication EP2570123A1, “Use of 2,4-dichlorobenzyl alcohol having an anaesthetic effect” (Reckitt Benckiser Healthcare (UK) Limited, priority 2007, dated 2009).

Experiments:
[1] = molecular target: T1, α-subunit of NaV1.2 neuronal sodium channels (Rattus norvegicus, UniProt P04775); assay: cell-based; conditions: for sensitivity at -70 mV holding potential compared to hyperpolarized holding potentials: -70 mV versus -100 and/or -150 mV; for nHR: Hill coefficient, resting state binding; for blocking potency compared with lidocaine (words): block of resting channels
T1 sequence (P04775 whole entry): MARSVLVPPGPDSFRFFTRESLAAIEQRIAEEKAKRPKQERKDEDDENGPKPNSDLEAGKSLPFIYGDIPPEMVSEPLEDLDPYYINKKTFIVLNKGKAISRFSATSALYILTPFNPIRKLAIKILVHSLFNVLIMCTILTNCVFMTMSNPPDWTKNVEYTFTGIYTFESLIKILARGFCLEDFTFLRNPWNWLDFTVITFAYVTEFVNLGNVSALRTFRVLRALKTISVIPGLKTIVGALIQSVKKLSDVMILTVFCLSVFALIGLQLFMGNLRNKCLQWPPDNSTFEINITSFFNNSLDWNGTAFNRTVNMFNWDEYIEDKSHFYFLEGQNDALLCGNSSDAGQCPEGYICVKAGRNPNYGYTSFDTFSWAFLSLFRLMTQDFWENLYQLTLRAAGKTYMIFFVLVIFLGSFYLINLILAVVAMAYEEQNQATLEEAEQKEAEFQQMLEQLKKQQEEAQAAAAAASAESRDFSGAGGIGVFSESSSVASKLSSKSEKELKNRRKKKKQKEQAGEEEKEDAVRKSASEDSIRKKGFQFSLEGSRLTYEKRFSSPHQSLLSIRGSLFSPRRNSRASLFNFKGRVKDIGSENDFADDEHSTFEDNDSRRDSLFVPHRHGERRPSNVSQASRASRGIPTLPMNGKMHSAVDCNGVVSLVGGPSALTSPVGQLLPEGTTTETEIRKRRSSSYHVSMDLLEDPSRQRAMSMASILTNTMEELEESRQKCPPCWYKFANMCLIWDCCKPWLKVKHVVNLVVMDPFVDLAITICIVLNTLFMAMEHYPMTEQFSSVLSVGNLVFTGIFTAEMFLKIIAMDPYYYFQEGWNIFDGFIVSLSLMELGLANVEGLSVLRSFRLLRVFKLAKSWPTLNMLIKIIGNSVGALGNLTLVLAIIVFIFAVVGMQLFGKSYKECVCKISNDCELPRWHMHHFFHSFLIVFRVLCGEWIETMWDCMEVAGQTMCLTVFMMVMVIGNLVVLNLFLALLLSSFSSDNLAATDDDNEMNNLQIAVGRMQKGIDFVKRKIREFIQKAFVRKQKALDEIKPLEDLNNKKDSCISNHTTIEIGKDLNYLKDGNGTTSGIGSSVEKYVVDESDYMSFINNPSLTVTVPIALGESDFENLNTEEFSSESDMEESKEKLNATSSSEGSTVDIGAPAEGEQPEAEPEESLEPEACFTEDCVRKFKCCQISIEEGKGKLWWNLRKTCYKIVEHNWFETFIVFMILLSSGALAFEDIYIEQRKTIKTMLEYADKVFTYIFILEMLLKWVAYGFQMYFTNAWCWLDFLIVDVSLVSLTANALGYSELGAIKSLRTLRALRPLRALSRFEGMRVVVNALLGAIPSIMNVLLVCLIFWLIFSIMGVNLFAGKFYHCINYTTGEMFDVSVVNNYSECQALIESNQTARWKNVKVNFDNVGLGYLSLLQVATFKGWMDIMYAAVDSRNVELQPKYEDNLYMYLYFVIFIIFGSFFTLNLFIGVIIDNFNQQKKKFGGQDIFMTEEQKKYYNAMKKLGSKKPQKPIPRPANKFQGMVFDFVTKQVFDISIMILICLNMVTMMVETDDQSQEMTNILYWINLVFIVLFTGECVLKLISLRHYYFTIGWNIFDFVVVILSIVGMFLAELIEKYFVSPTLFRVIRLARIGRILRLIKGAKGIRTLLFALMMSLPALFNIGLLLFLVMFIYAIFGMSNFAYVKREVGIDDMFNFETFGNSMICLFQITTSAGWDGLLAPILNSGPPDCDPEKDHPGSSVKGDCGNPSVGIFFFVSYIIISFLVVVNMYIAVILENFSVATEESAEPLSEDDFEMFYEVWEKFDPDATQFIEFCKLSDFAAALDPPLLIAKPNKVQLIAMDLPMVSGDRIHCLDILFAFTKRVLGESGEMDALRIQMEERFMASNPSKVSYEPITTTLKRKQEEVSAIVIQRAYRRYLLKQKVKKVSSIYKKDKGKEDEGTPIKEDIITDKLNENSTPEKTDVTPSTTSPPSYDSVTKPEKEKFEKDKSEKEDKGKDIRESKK
Description: Stably transfected HEK 293 cell lines expressing the α-subunit of NaV1.2 neuronal sodium channels from a rat were used. The expression vector pRc/CMV (Invitrogen, San Diego, USA) was used for mammalian transfection. Transfection was performed using calcium phosphate precipitation. Permanent expression was achieved by selection for resistance to the aminoglycoside antibiotic geneticin G418 (Life Technology, Eggenstein, Germany).
The stock solution was then dissolved directly in bath solution. The bath solution contained [mM] NaCl 140, MgCl2 1.0, KCl 4.0, CaCl2 2.0, Hepes 5.0, dextrose 5.0. Patch electrodes contained [mM] CsCl2 130, MgCl2 2.0, EGTA 5.0, Hepes 10. All solutions were adjusted to 290 mosm 1^-1 by the addition of mannitol and to pH 7.4 by the addition ofCsOH.
Standard whole-cell voltage-clamp experiments were performed at 20°C. Each experiment consisted of test recordings with the drug present at only one concentration, and of drug-free control recordings before and after the test. Each cell was exposed to one test concentration only. At least three or five independent experiments were performed at each concentration depending on the active being tested.
For data acquisition and further analysis, a EPC9 digitally-controlled amplifier was used in combination with Pulse and Pulse Fit software (HEKA Electronics, Lambrecht, Germany). The EPC9 provides automatic subtraction of capacitive and leakage currents by means of a prepulse protocol. The data were filtered at 10 kHz and digitized at 20 µs per point. The input resistance of the patch pipettes was 2.0-3.5 MΩ and the capacitances of the cells were 9-15 pF; the residual series resistance (after 50% compensation) was 1.2-2.5 MΩ. Experiments with a rise in series resistance were rejected. To minimize time-dependent shifts in the voltage-dependence of steady-state inactivation, all test experiments were performed within 5 min of patch rupture.
Drug effects on the peak current amplitude were assessed at a hyperpolarized membrane potentials (-100 mV and -150mV), at a holding potential close to the normal resting potential in physiological conditions (-70 mV), and, additionally, at -100 mV in the presence of a fraction of slow inactivated channels. Slow inactivation was induced by long (2.5 s) prepulses to -90, -70, -50, -30 and -10 mV, followed by a short hyperpolarization to allow recovery from fast-inactivation. In our protocol the recovery interval was prolonged to 100 ms (instead of 10 ms originally described) in order to allow sufficient time not only for drug-free, but also for all drug-bound states to recover from fast inactivation. The residual sodium current (Inorm) in the presence of a drug (with respect to the peak current elicited with the same protocol during wash-out) elicited with a single test pulse to 0 mV was plotted against the applied concentration of the drug [C]. Concentration-response-curves were fitted using a Hill equation yielding the concentrations for half-maximum channel blockade (ICR50), and the respective Hill coefficients nH. (I)/(Imax) = (IC50^nH)/(IC50^nH + C^nH) [formula] (I)/(Imax) = a(ICR50^nH)/(ICR50^nH + C^nH) + (1-a)(ICI50^nH)/(ICI50^nH + C^nH) [formula]
In the presence of Hexetidine, a 2-state Hill equation, Eq. 2, was applied, yielding the concentrations for half-maximum channel blockade in the inactivated state (ICI50), the respective Hill coefficient nH, and the respective amplitudes a and (1-a). The values previously obtained for ICR50 and nH were entered as constant factors.

[2] = molecular target: T1, α-subunit of NaV1.2 neuronal sodium channels; assay: Whole-cell voltage-clamp, double-pulse protocol: steady-state availability (fast inactivation), voltage shift and model-dependent affinity for inactivated channels; assay type: cell-based; set-up: expressed in transfected cells; host or cells: HEK 293, stably transfected with expression vector pRc/CMV and selected with G418; conditions: for nHI: Hill coefficient for inactivated state binding, model fit of Eq.4; for maximum shift in voltage-dependence of sodium channel availability: negative shift in midpoints of steady-state availability plots
Description: Transfection was performed using calcium phosphate precipitation. […] Successful channel expression was verified electrophysiologically.
The bath solution contained [mM] […] Patch electrodes contained [mM]
Each cell was exposed to one test concentration only.
Experiments with a rise in series resistance were rejected.
Drug binding to inactivated channels is hardly accessible to a direct experimental approach, because inactivated channel states and all drug-bound channel states are unavailable on depolarization. A model-dependent method is generally applied to determine the affinity to fast-inactivated channel states. The voltage-dependence of the block and the affinity for fast-inactivated channel states was further assessed by applying a double-pulse protocol. Currents elicited by test pulses (Itest), starting from varying prepulse potentials (from -150 mV to -5 mV), normalized to the current elicited at the most hyperpolarized prepotential (-150 mV), represent the relative fraction of channels that have not been inactivated during the 100 ms inactivating prepulse. Boltzmann fits to the resulting current-voltage plots yield the membrane potential at half-maximum channel availability (V0.5) and the slope factor k, reflecting the 'voltage sensitivity' of inactivation gating (see Eq. 3). (I)/(Imax) = (1)/(1 + e^(((Vtest -V0.5)/(k)))) [formula]
In control conditions, the parameters of the Boltzmann fits reflect the voltage-dependence of the distribution between resting and fast-inactivated channels (the availability curve). In the presence of the drug, the steady-state availability curve reflects drug association with rested and fast-inactivated channels, respectively. […] The underlying assumption is that the higher amount of channel blockade achieved with consecutive membrane depolarization is determined by the distribution of channels between resting and fast-inactivated states along the voltage axis (i.e. the channel availability curve), and by the different binding affinities of the blocking drug for the two channel states. The voltage shift ΔV0.5 in the presence of a drug would depend upon the drug concentration [C] according to Eq. 4. A fit of the model to ΔV0.5 plotted against concentration yields estimates for the concentration for half-maximum effect on fast-inactivated channels ICI50 and the Hill-type coefficient for drug binding to inactivated channels n: ΔV0.5 = k.ln[(1+([C])/(ICR50))/(1+(([C])^n)/(ICR50^n)) [formula]
K and ICR50 are entered as constant factors. K is the slope factor of the availability curve in the controls and ICR50 is the concentration for half-maximum effect on resting channels, obtained at -100 mV holding potential.

[3] = -100 mV, after application of higher concentrations (> EC50)
[4] = ECR50, half maximum blocking concentration, resting channels, fit to concentration-response plots at -150 mV holding potential, HEK 293, 20°C
[5] = estimate for inactivated channels, model fit of Eq.4 to concentration-dependence of the voltage shift in the availability curve, read-out: ECI50

| IC50 [1, 4] [µM] | IC50 [2, 5] [µM] | SMILES | currents during wash-out, % of control current ([1]; -70 mV holding potential) [%] | currents during wash-out, % of control current ([1]; -100 mV holding potential) [%] | currents during wash-out, % of control current [1, 3] [%] | currents during wash-out, % of control current ([1]; -150 mV holding potential) [%] | sensitivity at -70 mV holding potential compared to hyperpolarized holding potentials [1] | nHR ([1]; -150 mV holding potential) | estimated affinity to inactivated channels compared to resting channels [2] | nHI [2] | maximum shift in voltage-dependence of sodium channel availability [2] [mV] | further results |
| --- | --- | --- | --- | --- | --- | --- | --- | --- | --- | --- | --- | --- |
| – | – | CCCCCc1ccc(C)cc1O [AMC, amylmetacresol] | 64 ± 9 | 91 ± 3 | 94 ± 6 | 90 ± 3 | – | – | – | – | – | IC50 [1]: 55 µM; potency for block of resting sodium channels relative to lidocaine ([1]; depolarization from the resting state): around 10 fold; IC50 [2]: 22 µM; ECI50 lower than the ECR50 ([2]; inactivated versus resting channels): around 3 fold |
| 21 | 0.3 | CCCCCCc1ccc(O)cc1O [HR, hexylresorcinol] | – | 94 ± 4 | 90 ± 10 | 95 ± 3 | – | – | – | – | – | – |
| 35 | 0.05 | CCCCC(CC)CN1CN(CC(CC)CCCC)CC(C)(N)C1 (stereo not drawn) [HT, hexetidine] | 47 ± 11 | – | – | 80 ± 8 | increased | 1.08 | several fold higher | 0.5 | -21 | concentrations toxic for the seal in whole cell experiments [1]: above 30 µM; block of sodium inward currents ([1]; 100 µM, 3 experiments, not solely attributable to specific channel block): complete block; IC50 ([1]; estimated EC50, high-affinity binding site, biphasic concentration-response curve, two distinct binding sites): 0.001 µM; inhibition at 0.1 µM ([1]; read-out: block, % of the control current amplitude): 41 ± 13% |

| SMILES | IC50 [1, 4] [µM] | IC50 [2, 5] [µM] | currents during wash-out, % of control current ([1]; -70 mV holding potential) [%] | currents during wash-out, % of control current ([1]; -100 mV holding potential) [%] | currents during wash-out, % of control current [1, 3] [%] | currents during wash-out, % of control current ([1]; -150 mV holding potential) [%] | sensitivity at -70 mV holding potential compared to hyperpolarized holding potentials [1] | nHR ([1]; -150 mV holding potential) | estimated affinity to inactivated channels compared to resting channels [2] | nHI [2] | maximum shift in voltage-dependence of sodium channel availability [2] [mV] | further results |
| --- | --- | --- | --- | --- | --- | --- | --- | --- | --- | --- | --- | --- |
| OCc1ccc(Cl)cc1Cl [DCBA, 2,4-dichlorobenzyl alcohol] | 657 | 5.2 | 63 ± 9 | 89 ± 5 | – | 88 ± 3 | slightly increased | 3.5 | several fold higher | 0.4 | -15 | currents during wash-out, % of control current amplitude ([1]; -100 mV holding potential, after 300 and 500 µM DCBA): 71 ± 3%; blocking potency compared with lidocaine (words) ([1]; listed as Dichlorobenzyl alcohol): about as potent as lidocaine; blocking potency compared with lidocaine (words) ([1]; listed as dichlorobenzyl alcohol): comparable |
